# Read-outs that look alike come from different tables or passages of the source.
# How the values were obtained:
# E. coli = assay: Biofilm growth assay (spreading biofilm on semi-solid agar); assay type: cell-based; settings: Escherichia coli
# Procedure, shortened: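 Spreading (swarming) biofilm on semi-solid agar: E. coli on LB with 0.6% agar and 0.5% glucose; P. aeruginosa on M8 agar with 0.2% glucose, 100 µM CaCl2, 1 mM MgSO4, 0.5% Casamino acids. Compound in medium; 5 µL overnight culture spotted centrally, 37°C overnight. Value: concentration (µg/ml) giving ≥85% reduction in spread area versus negative control.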
# P. aeruginosa = assay: as above; assay type: cell-based; settings: Pseudomonas aeruginosa
# [1] = Table 3, concentration that reduces the area of the spreading biofilm by >= 85%, read-out: E. coli
# [2] = Table 3, concentration that reduces the area of the spreading biofilm by >= 85%, read-out: P. aeruginosa
# [3] = Table 4, concentration that reduces the area of the spreading biofilm by >= 85%, read-out: E. coli
# [4] = Table 4, concentration that reduces the area of the spreading biofilm by >= 85%, read-out: P. aeruginosa
# [5] = Table 1, concentration that reduces the area of the spreading biofilm vs negative controls by >= 85%, > means not effective at this concentration, read-out: E. coli
# [6] = Table 1, concentration that reduces the area of the spreading biofilm vs negative controls by >= 85%, > means not effective at this concentration, read-out: P. aeruginosa
SMILES,IC85 (E. coli; [1]) [µg/mL],IC85 (P. aeruginosa; [2]) [µg/mL],other results
"CCC1=C2[C@@H]3CC(C)(C)CC[C@]3(C(=O)O)CC[C@@]2(C)[C@]2(C)CC[C@H]3C(C)(C)c4n[nH]c(N)c4C[C@]3(C)C2C1 (stereo partly drawn) [Compound 14, (4aS,6aS,6bR,8aR,13aR,15bS)-12-Amino-15-ethyl-2,2,6a,6b,9,9,13a-heptamethyl-2,3,4,4a,5,6,6a,6b,7,8,8a,9,11,13,13a,13b,14,15b-octadecahydro-1H-chryseno[1,2-f]indazole-4a-carboxylic acid]",2,0.5,
"CC1(C)CC[C@]2(c3n[nH]c(O)c3CCO)CC[C@]3(C)C(=CCC4[C@@]5(C)Cc6c(n[nH]c6N)C(C)(C)C5CC[C@]43C)C2C1 (stereo partly drawn) [Compound 81, 3-((4aS,6aS,6bR,13aR)-12-Amino-2,2,6a,6b,9,9,13a-heptamethyl-2,3,4,4a,5,6,6a,6b,7,8,8a,9,11,13,13a,13b,14,15b-octadecahydro-1H-chryseno[1,2-f]indazol-4a-yl)-4-(2-hydroxyethyl)-1H-pyrazol-5-ol]",,,IC85 (E. coli; [3]): 1 µg/mL; IC85 (P. aeruginosa; [4]): 0.5 µg/mL
"CC1(C)CC[C@]2(C(=O)O)CC[C@]3(C)C(=C(c4cccc(F)c4)CC4[C@@]5(C)Cc6c(n[nH]c6N)C(C)(C)[C@@H]5CC[C@]43C)[C@@H]2C1 (stereo partly drawn) [Compound 17, (4aS,6aS,6bR,8aR,13aR,15bS)-12-Amino-15-(3-fluorophenyl)-2,2,6a,6b,9,9,13a-heptamethyl-2,3,4,4a,5,6,6a,6b,7,8,8a,9,11,13,13a,13b,14,15b-octadecahydro-1H-chryseno[1,2-f]indazole-4a-carboxylic acid]",> 2,0.5,
"CC1(C)CC[C@]2(C(=O)O)CC[C@]3(C)C(=C(c4ccoc4CN4CCOCC4)CC4[C@@]5(C)Cc6c(n[nH]c6N)C(C)(C)[C@@H]5CC[C@]43C)[C@@H]2C1 (stereo partly drawn) [Compound 32, (4aS,6aS,6bR,8aR,13aR,15bS)-12-Amino-2,2,6a,6b,9,9,13a-heptamethyl-15-(2-(morpholinomethyl)furan-3-yl)-2,3,4,4a,5,6,6a,6b,7,8,8a,9,11,13,13a,13b,14,15b-octadecahydro-1H-chryseno[1,2-f]indazole-4a-carboxylic acid]",1,0.5,
"CN1CCN(Cc2occc2C2=C3[C@@H]4CC(C)(C)CC[C@]4(C(=O)O)CC[C@@]3(C)[C@]3(C)CC[C@H]4C(C)(C)c5n[nH]c(N)c5C[C@]4(C)C3C2)CC1 (stereo partly drawn) [Compound 36, (4aS,6aS,6bR,8aR,13aR,15bS)-12-Amino-2,2,6a,6b,9,9,13a-heptamethyl-15-(2-((4-methylpiperazin-1-yl)methyl)furan-3-yl)-2,3,4,4a,5,6,6a,6b,7,8,8a,9,11,13,13a,13b,14,15b-octadecahydro-1H-chryseno[1,2-f]indazole-4a-carboxylic acid]",2,> 1,
"C[C@H]1[C@H](C)CC[C@]2(CO)CC[C@]3(C)C(=CC[C@@H]4[C@@]5(C)CC[C@H](O)C(C)(C)[C@@H]5CC[C@]43C)[C@H]12 [Uvaol, reference compound]",,,IC85 (E. coli; [5]): > 8 µg/mL; IC85 (P. aeruginosa; [6]): > 128 µg/mL
"CC1(C)CC[C@]2(C(=O)n3ccnc3N)CC[C@]3(C)C(=CCC4[C@@]5(C)Cc6c(n[nH]c6N)C(C)(C)C5CC[C@]43C)C2C1 (stereo partly drawn) [Compound 73, (2-Amino-1H-imidazol-1-yl)((4aS,6aS,6bR,13aR)-12-amino-2,2,6a,6b,9,9,13a-heptamethyl-2,3,4,4a,5,6,6a,6b,7,8,8a,9,11,13,13a,13b,14,15b-octadecahydro-1H-chryseno[1,2-f]indazol-4a-yl)methanone]",,,IC85 (E. coli; [3]): 1 µg/mL; IC85 (P. aeruginosa; [4]): 1 µg/mL
"CN(C)c1cccc(C2=C3C4CC(C)(C)CC[C@]4(C(=O)O)CC[C@@]3(C)[C@]3(C)CCC4C(C)(C)c5n[nH]c(N)c5C[C@]4(C)C3C2)c1 (stereo partly drawn) [Compound 21, (4aS,6aS,6bR,13aR)-12-Amino-15-(3-(dimethylamino)phenyl)-2,2,6a,6b,9,9,13a-heptamethyl-2,3,4,4a,5,6,6a,6b,7,8,8a,9,11,13,13a,13b,14,15b-octadecahydro-1H-chryseno[1,2-f]indazole-4a-carboxylic acid]",> 2,0.5,
"CC1(C)CC[C@]2(C(=O)O)CC[C@]3(C)C(=C(c4ccccc4CN4CCOCC4)CC4[C@@]5(C)Cc6c(n[nH]c6N)C(C)(C)[C@@H]5CC[C@]43C)[C@@H]2C1 (stereo partly drawn) [Compound 59, (4aS,6aS,6bR,8aR,13aR,15bS)-12-Amino-2,2,6a,6b,9,9,13a-heptamethyl-15-(2-(morpholinomethyl)phenyl)-2,3,4,4a,5,6,6a,6b,7,8,8a,9,11,13,13a,13b,14,15b-octadecahydro-1H-chryseno[1,2-f]indazole-4a-carboxylic acid]",> 1,0.5,
"C=C(C)[C@@H]1CC[C@]2(CO)CC[C@]3(C)[C@H](CC[C@@H]4[C@@]5(C)CC[C@H](O)C(C)(C)[C@@H]5CC[C@]43C)[C@@H]12 [Betulin, reference compound]",,,IC85 (E. coli; [5]): > 16 µg/mL; IC85 (P. aeruginosa; [6]): 16 µg/mL
"CC1(C)CC[C@]2(C(=O)O)CC[C@]3(C)C(=C(c4cccc(N)c4)CC4[C@@]5(C)Cc6c(n[nH]c6N)C(C)(C)[C@@H]5CC[C@]43C)[C@@H]2C1 (stereo partly drawn) [Compound 15, (4aS,6aS,6bR,8aR,13aR,15bS)-12-Amino-15-(3-aminophenyl)-2,2,6a,6b,9,9,13a-heptamethyl-2,3,4,4a,5,6,6a,6b,7,8,8a,9,11,13,13a,13b,14,15b-octadecahydro-1H-chryseno[1,2-f]indazole-4a-carboxylic acid]",1,0.25,
"Cc1ccc(C2=C3C4CC(C)(C)CC[C@]4(C(=O)O)CC[C@@]3(C)[C@]3(C)CCC4C(C)(C)c5n[nH]c(N)c5C[C@]4(C)C3C2)cc1N (stereo partly drawn) [Compound 20, (4aS,6aS,6bR,13aR)-12-Amino-15-(3-amino-4-methylphenyl)-2,2,6a,6b,9,9,13a-heptamethyl-2,3,4,4a,5,6,6a,6b,7,8,8a,9,11,13,13a,13b,14,15b-octadecahydro-1H-chryseno[1,2-f]indazole-4a-carboxylic acid]",2,0.5,
"CC1(C)CC[C@]2(C(=O)O)CC[C@]3(C)C(=C(c4ccc(N)c(F)c4)CC4[C@@]5(C)Cc6c(n[nH]c6N)C(C)(C)C5CC[C@]43C)C2C1 (stereo partly drawn) [Compound 31, (4aS,6aS,6bR,13aR)-12-Amino-15-(4-amino-3-fluorophenyl)-2,2,6a,6b,9,9,13a-heptamethyl-2,3,4,4a,5,6,6a,6b,7,8,8a,9,11,13,13a,13b,14,15b-octadecahydro-1H-chryseno[1,2-f]indazole-4a-carboxylic acid]",1,0.5,
"CC1(C)CC[C@]2(C(=O)O)CC[C@]3(C)C(=C(c4ccsc4CN4CCOCC4)CC4[C@@]5(C)Cc6c(n[nH]c6N)C(C)(C)C5CC[C@]43C)C2C1 (stereo partly drawn) [Compound 34, (4aS,6aS,6bR,13aR)-12-Amino-2,2,6a,6b,9,9,13a-heptamethyl-15-(2-(morpholinomethyl)thiophen-3-yl)-2,3,4,4a,5,6,6a,6b,7,8,8a,9,11,13,13a,13b,14,15b-octadecahydro-1H-chryseno[1,2-f]indazole-4a-carboxylic acid]",1,1,
"Cn1nc([C@]23CCC(C)(C)C[C@H]2C2=CCC4[C@@]5(C)Cc6c(n[nH]c6N)C(C)(C)[C@@H]5CC[C@@]4(C)[C@]2(C)CC3)cc1N (stereo partly drawn) [Compound 72, (4aS,6aS,6bR,8aR,13aR,15bS)-4a-(5-Amino-1-methyl-1H-pyrazol-3-yl)-2,2,6a,6b,9,9,13a-heptamethyl-2,3,4,4a,5,6,6a,6b,7,8,8a,9,11,13,13a,13b,14,15b-octadecahydro-1H-chryseno[1,2-f]indazol-12-amine]",,,IC85 (E. coli; [3]): > 2 µg/mL; IC85 (P. aeruginosa; [4]): 1 µg/mL
"CN1CCN(c2ccc(C3=C4C5CC(C)(C)CC[C@]5(C(=O)O)CC[C@@]4(C)[C@]4(C)CCC5C(C)(C)c6n[nH]c(N)c6C[C@]5(C)C4C3)cc2)CC1 (stereo partly drawn) [Compound 53, (4aS,6aS,6bR,13aR)-12-Amino-2,2,6a,6b,9,9,13a-heptamethyl-15-(4-(4-methylpiperazin-1-yl)phenyl)-2,3,4,4a,5,6,6a,6b,7,8,8a,9,11,13,13a,13b,14,15b-octadecahydro-1H-chryseno[1,2-f]indazole-4a-carboxylic acid]",2,0.5,
Cn1cc2c(n1)C(C)(C)C1CC[C@]3(C)C(CC=C4C5CC(C)(C)CC[C@]5(C(=O)O)CC[C@]43C)[C@@]1(C)C2 (some centres unmarked) [E],,,IC85 (E. coli; [5]): > 16 µg/mL; IC85 (P. aeruginosa; [6]): 2 µg/mL
"CN1CCN(c2c([C@]34CCC(C)(C)CC3C3=CCC5[C@@]6(C)Cc7c(n[nH]c7N)C(C)(C)C6CC[C@@]5(C)[C@]3(C)CC4)n[nH]c2O)CC1 (stereo partly drawn) [Compound 89, 3-((4aS,6aS,6bR,13aR)-12-Amino-2,2,6a,6b,9,9,13a-heptamethyl-2,3,4,4a,5,6,6a,6b,7,8,8a,9,11,13,13a,13b,14,15b-octadecahydro-1H-chryseno[1,2-f]indazol-4a-yl)-4-(4-methylpiperazin-1-yl)-1H-pyrazol-5-ol]",,,IC85 (E. coli; read-out: E. coli (µg/ml)): 1 µg/mL; IC85 (P. aeruginosa; read-out: P. aeruginosa (µg/ml)): 1 µg/mL
"C[C@@H]1c2n[nH]c(N)c2C[C@]2(C)C3CC=C4[C@@H]5CC(C)(C)CC[C@]5(C(=O)O)CC[C@@]4(C)[C@]3(C)CC[C@@H]12 (stereo partly drawn) [Compound 3, (4aS,6aS,6bR,8aS,9S,13aS,15bS)-12-Amino-2,2,6a,6b,9,13a-hexamethyl-2,3,4,4a,5,6,6a,6b,7,8,8a,9,11,13,13a,13b,14,15b-octadecahydro-1H-chryseno[1,2-f]indazole-4a-carboxylic acid]",,,"IC85 (E. coli; Table 2, concentration that reduces the area of the spreading biofilm by >= 85%, read-out: E. coli): 1 µg/mL; IC85 (P. aeruginosa; Table 2, concentration that reduces the area of the spreading biofilm by >= 85%, read-out: P. aeruginosa): 0.5 µg/mL"

# — patent publication EP2712863B1, “Novel inhibitors of bacterial biofilms and related methods” (Sequoia Sciences, Inc., priority 2012, dated 2014)
